This is an account of results in PMC9596378, “Discovery and molecular basis of subtype-selective cyclophilin inhibitors” (Nature Chemical Biology, 2022).

In one data set the target is T1, PPWD1 (Homo sapiens, UniProt Q96BP3).
T1 construct: PPWD1 (UniProtKB Entry Q96BP3: residues 473–646); host or cells: E. coli BL21(DE3)
T1 sequence (Q96BP3 473-646): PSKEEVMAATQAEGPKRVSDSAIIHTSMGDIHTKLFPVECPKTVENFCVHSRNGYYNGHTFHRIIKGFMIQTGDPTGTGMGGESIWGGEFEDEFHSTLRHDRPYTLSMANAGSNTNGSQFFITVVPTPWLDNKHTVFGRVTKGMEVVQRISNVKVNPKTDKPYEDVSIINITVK
Description: Chymotrypsin coupled prolyl-isomerase assay. The data set is classed as biochemical.

The target of a further data set is T2, NKTR (Homo sapiens, UniProt P30414).
T2 construct: NKTR (UniProtKB Entry P30414: residues 7–179); host or cells: E. coli BL21(DE3)
T2 sequence (P30414 7-179): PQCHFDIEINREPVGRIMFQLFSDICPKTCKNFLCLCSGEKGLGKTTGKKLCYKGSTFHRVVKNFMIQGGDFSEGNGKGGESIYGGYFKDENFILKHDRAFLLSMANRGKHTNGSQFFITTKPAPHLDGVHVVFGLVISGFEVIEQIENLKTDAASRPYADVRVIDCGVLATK
Kind of data set: Chymotrypsin coupled prolyl-isomerase assay. It is filed as biochemical.

The target of a further data set is CypD (Homo sapiens, UniProt P30405). Description: Chymotrypsin coupled prolyl-isomerase assay. The method, then: Five microliters of compound pre-dissolved in 5% DMSO/assay buffer was then added to appropriate wells and incubated at 2–3 °C for 5 min. Five microliters of 0.5 mM α-chymotrypsin from bovine pancreas (Type II, lyophilized powder, Millipore-Sigma) in 20% 1 mM HCl/Assay Buffer was then added to each well and incubated at 2–3 °C for 5 min. The plate was then quickly transferred to a FLIPR Tetra High-Throughput Cellular Screening System (Molecular Devices). Using the internal liquid handling system of the FLIPR, 1 µL 0.5 mM Suc-AAPF-AMC (Chymotrypsin Substrate II, Millipore-Sigma) dissolved in 0.55 M LiCl/2,2,2-trifluoroethanol was added to each well, which was then mixed for 5 s, followed by immediate fluorescence measurements every 1 s for 330 s using a 360–380 nm excitation LED module and a 400–460 nm emission filter. […] Raw fluorescence data was analyzed by non-linear regression analysis with Prism v.9 by fitting one-phase association curves to each well. […] Rate constants calculated for each well (s^−1) were then normalized to substrate only (no prolyl-isomerase) and enzyme + substrate only controls.

The next data set addresses T3, CypB (Homo sapiens, UniProt P23284).
T3 construct: PPIB (UniProtKB Entry P23284: residues 34–216); His6 with TEV site (2BT vector leader) (N); made in house; host or cells: E. coli BL21(DE3)
Description: biochemical. Particulars: wild-type CypB; read-out: Wild-Type Cyclophilin Prolyl Isomerase Inhibition IC50 Values, CypB. The procedure:
(§1) Adapting a previously described protocol, with an Agilent Bravo Velocity 11 with a 384ST head, 90 µL assay buffer (25 mM HEPES pH 7.3, 100 mM NaCl, 0.01% Triton X-100) containing 5.28 nM cyclophilin was added into a flat, clear-bottom, black 384-well plate pre-chilled in a Corning CoolBox at 2–3 °C. Five microliters of compound pre-dissolved in 5% DMSO/assay buffer was then added to appropriate wells and incubated at 2–3 °C for 5 min. Five microliters of 0.5 mM α-chymotrypsin from bovine pancreas (Type II, lyophilized powder, Millipore-Sigma) in 20% 1 mM HCl/Assay Buffer was then added to each well and incubated at 2–3 °C for 5 min. The plate was then quickly transferred to a FLIPR Tetra High-Throughput Cellular Screening System (Molecular Devices). Using the internal liquid handling system of the FLIPR, 1 µL 0.5 mM Suc-AAPF-AMC (Chymotrypsin Substrate II, Millipore-Sigma) dissolved in 0.55 M LiCl/2,2,2-trifluoroethanol was added to each well, which was then mixed for 5 s, followed by immediate fluorescence measurements every 1 s for 330 s using a 360–380 nm excitation LED module and a 400–460 nm emission filter. Final concentrations of the plate include 5 nM cyclophilin, 0.25% DMSO, 25 µM α-chymotrypsin, 5 µM Suc-AAPF-AMC. Raw fluorescence data was analyzed by non-linear regression analysis with Prism v.9 by fitting one-phase association curves to each well. […] Rate constants calculated for each well (s^−1) were then normalized to substrate only (no prolyl-isomerase) and enzyme + substrate only controls. IC50 values were calculated as the value at which 50% inhibition was achieved on the non-linear regression fitted curve of each compound.

The next data set addresses Cyp40 (Homo sapiens, UniProt Q08752). Kind of data set: Chymotrypsin coupled prolyl-isomerase assay. The method, then:
as §1

A further data set addresses T4, PPIL1 (Homo sapiens, UniProt Q9Y3C6).
T4 construct: PPIL1 (UniProtKB Entry Q9Y3C6: residues 1–166); made in house; host or cells: E. coli BL21(DE3)
T4 sequence (Q9Y3C6 1-166): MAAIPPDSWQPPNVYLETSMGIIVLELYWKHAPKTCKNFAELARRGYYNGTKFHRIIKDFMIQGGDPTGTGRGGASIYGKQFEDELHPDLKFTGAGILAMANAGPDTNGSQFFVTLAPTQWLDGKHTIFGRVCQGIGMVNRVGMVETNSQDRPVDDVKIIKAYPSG
Description: Chymotrypsin coupled prolyl-isomerase assay. The data set is classed as biochemical. The note with it: wild-type PPIL1; read-out: Wild-Type Cyclophilin Prolyl Isomerase Inhibition IC50 Values, PPIL1.

A further data set deals with T5, CypE (Homo sapiens, UniProt Q9UNP9).
T5 construct: PPIE (UniProtKB Entry Q9UNP9: residues 131–301); host or cells: E. coli BL21(DE3)
Description: Chymotrypsin coupled prolyl-isomerase assay. It is filed as biochemical. Particulars: wild-type CypE; read-out: Wild-Type Cyclophilin Prolyl Isomerase Inhibition IC50 Values, CypE. The procedure:
as §1

The next data set deals with T6, CypA (Homo sapiens, UniProt P62937).
T6 construct: PPIA (UniProtKB Entry P62937: residues 1–165); made in house; host or cells: E. coli BL21(DE3)
Description: Chymotrypsin coupled prolyl-isomerase assay. It is filed as biochemical. The note with it: wild-type CypA; read-out: Wild-Type Cyclophilin Prolyl Isomerase Inhibition IC50 Values, CypA. The method, then:
as §1

For the next data set, the target named is T7, CypC (Homo sapiens, UniProt P45877).
T7 construct: PPIC (UniProtKB Entry P45877: residues 24–212); host or cells: E. coli BL21(DE3)
Description: Chymotrypsin coupled prolyl-isomerase assay. It is filed as biochemical. The method, then: as §1

In a further data set the target is T8, CypG (Homo sapiens, UniProt Q13427).
T8 construct: PPIG (UniProtKB Entry Q13427: residues 1–179); His6 with thrombin site (pET28a LIC leader) (N); host or cells: E. coli BL21(DE3)
T8 sequence (Q13427 1-179): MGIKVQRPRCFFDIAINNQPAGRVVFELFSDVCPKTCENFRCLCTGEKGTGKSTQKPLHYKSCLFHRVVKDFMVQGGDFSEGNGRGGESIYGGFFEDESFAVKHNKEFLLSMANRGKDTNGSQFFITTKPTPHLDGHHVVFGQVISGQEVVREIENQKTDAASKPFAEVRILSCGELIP
Description: Chymotrypsin coupled prolyl-isomerase assay. It is filed as biochemical. The note with it: wild-type CypG; read-out: Wild-Type Cyclophilin Prolyl Isomerase Inhibition IC50 Values, CypG. The method, then:
as §1

A further data set addresses T9, CypH (Homo sapiens, UniProt O43447).
T9 construct: PPIH (UniProtKB Entry O43447: residues 1–177); His6 with TEV site (2BT vector leader) (N); made in house; host or cells: E. coli BL21(DE3)
Description: Chymotrypsin coupled prolyl-isomerase assay. It is filed as biochemical. The method, then:
as §1

Setting [1] is: wild-type PPWD1, read-out: Wild-Type Cyclophilin Prolyl Isomerase Inhibition IC50 Values, PPWD1.
Setting [2] is: wild-type NKTR, read-out: Wild-Type Cyclophilin Prolyl Isomerase Inhibition IC50 Values, NKTR.
Where [3] appears, read: read-out: IC50 CypD, prolyl-isomerase inhibition, 5 nM cyclophilin, Suc-AAPF-AMC, mean±s.e.m. of 3 technical replicates (B52, B53, C3A wild-type: mean±s.d. of 4 independent replicates).
Where [4] appears, read: wild-type CypC, read-out: Wild-Type Cyclophilin Prolyl Isomerase Inhibition IC50 Values, CypC.
Where [5] appears, read: wild-type CypH, read-out: Wild-Type Cyclophilin Prolyl Isomerase Inhibition IC50 Values, CypH.
The mark [6] stands for this setting: Wild-Type Cyclophilin Prolyl Isomerase Inhibition IC50 Values, Cyp40, wild-type Cyp40.
The mark [7] stands for this setting: Wild-Type Cyclophilin Prolyl Isomerase Inhibition IC50 Values, CypD, wild-type CypD.

Where two headings read alike, the source gives them in different places. A value given as a limit tells only on which side of the number the result lay.

T6 sequence (P62937 whole entry, the tested form may be a part): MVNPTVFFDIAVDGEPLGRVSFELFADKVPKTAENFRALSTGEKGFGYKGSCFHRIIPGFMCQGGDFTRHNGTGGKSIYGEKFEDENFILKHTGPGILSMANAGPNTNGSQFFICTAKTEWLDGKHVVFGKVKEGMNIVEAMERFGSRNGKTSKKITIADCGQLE
T3 sequence (P23284 34-216): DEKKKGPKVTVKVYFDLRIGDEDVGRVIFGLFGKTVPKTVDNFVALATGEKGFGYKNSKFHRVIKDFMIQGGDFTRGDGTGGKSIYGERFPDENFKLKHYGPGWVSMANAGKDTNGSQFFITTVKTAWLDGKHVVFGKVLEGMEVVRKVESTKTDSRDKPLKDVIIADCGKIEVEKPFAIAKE
Chain of CypD (P30405 45-207): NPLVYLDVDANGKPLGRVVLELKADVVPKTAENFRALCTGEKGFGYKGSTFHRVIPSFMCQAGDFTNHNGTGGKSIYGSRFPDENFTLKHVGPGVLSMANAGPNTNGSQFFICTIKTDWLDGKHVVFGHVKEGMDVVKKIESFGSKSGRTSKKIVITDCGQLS
T5 sequence (Q9UNP9 131-301): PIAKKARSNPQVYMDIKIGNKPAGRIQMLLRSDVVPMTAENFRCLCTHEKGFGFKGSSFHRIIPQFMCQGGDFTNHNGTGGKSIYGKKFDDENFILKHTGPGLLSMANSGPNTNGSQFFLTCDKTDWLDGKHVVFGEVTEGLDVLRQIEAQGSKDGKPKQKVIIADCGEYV
T9 sequence (O43447 whole entry, the tested form may be a part): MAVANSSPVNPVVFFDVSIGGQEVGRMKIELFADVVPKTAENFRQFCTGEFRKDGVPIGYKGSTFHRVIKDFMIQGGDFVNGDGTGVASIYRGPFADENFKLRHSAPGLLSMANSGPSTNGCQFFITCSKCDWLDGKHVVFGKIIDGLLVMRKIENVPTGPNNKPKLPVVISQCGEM
Chain of Cyp40 (Q08752 1-183): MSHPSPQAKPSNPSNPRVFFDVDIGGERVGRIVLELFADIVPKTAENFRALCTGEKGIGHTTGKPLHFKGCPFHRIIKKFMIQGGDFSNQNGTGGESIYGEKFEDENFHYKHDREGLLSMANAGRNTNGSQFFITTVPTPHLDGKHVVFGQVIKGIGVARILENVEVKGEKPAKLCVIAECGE
T7 sequence (P45877 24-212): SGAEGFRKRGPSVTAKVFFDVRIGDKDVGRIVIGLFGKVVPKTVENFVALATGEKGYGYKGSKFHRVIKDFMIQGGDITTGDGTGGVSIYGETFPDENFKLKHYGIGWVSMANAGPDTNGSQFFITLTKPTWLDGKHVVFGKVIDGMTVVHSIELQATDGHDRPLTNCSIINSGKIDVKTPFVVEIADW

Usually IC50 stands for the point on the concentration scale where inhibition reaches its midpoint. On to `NCCOCCNC(=O)[C@@H]1CCNC(=O)/C=C/C(=O)N2CCC[C@](Cc3ccccc3)(C2)C(=O)N[C@@H](Cc2ccc(-c3ccc(/C=C/C(=O)O)cc3)cc2)C(=O)NCc2ccccc2CC(=O)N1` [Compound B24], for which the IC50 on PPWD1 (setting [1]) was 6 µM; at NKTR (prolyl-isomerase inhibition, 5 nM cyclophilin, read-out: IC50 NKTR), roughly 13 µM; at NKTR (setting [2]), 13 µM; at CypD (setting [3]), 0.0019 µM; at CypB, 0.005 µM; against Cyp40, 0.15 µM. Besides, the IC50 was 0.02 µM on PPIL1; 0.004 µM on CypE; 0.01 µM at CypA; 1.5 µM at CypC (setting [4]); 11 µM at CypG; greater than 50 µM at CypH (setting [5]).
Take `NCCOCCNC(=O)C1CCNC(=O)C=CC(=O)N2CCCC(Cc3ccccc3)(C2)C(=O)NC(Cc2ccco2)C(=O)NCc2ccccc2CC(=O)N1` (stereo not shown) [Compound A26]: the IC50 on PPWD1 (setting [1]) came to 3.4 µM; at NKTR (setting [2]), 4.2 µM; on CypD it was 0.2 µM; on CypB it was 0.1 µM; on Cyp40 (setting [6]) it was 0.4 µM; at PPIL1, 0.6 µM. Further, the IC50 on CypE is 0.8 µM; at CypA, 1.1 µM; at CypC (setting [4]) it was 0.53 µM; on CypG, 0.84 µM; on CypH (setting [5]), 2.7 µM. Besides, the “increase of CypD potency relative to JOMBt” value on CypD is given as 85 fold.
Turning to `NCCOCCNC(=O)C1CCNC(=O)C=CC(=O)N2CCCC(C2)C(=O)NC(Cc2ccc(C(=O)c3ccccc3)cc2)C(=O)NCc2ccccc2CC(=O)N1` (stereo not shown) [Compound A14], the IC50 is roughly 100 µM at PPWD1 (prolyl-isomerase inhibition, 5 nM cyclophilin, read-out: IC50 PPWD1); 100 µM at PPWD1 (setting [1]); greater than 100 µM on NKTR (setting [2]); 3.8 µM at CypD (setting [7]); 2.7 µM on CypB; 3 µM on Cyp40 (setting [6]). The IC50 at PPIL1 is 10 µM; on CypE, 13 µM; on CypA, 19 µM; at CypC (setting [4]) it was 9 µM; at CypG, greater than 100 µM; on CypH (setting [5]) it was greater than 100 µM.
For `CC(=O)c1ccc(-c2ccc(C[C@@H]3NC(=O)[C@]4(Cc5ccccc5)CCCN(C4)C(=O)/C=C/C(=O)NCC[C@@H](C(=O)NCCOCCN)NC(=O)Cc4ccccc4CNC3=O)cc2)cc1` [Compound B15], the IC50 at PPWD1 (setting [1]) amounted to 0.88 µM; at NKTR (setting [2]), 4.9 µM; on CypD (setting [3]), 0.038 µM; at CypB, 0.08 µM; at Cyp40 (read-out: Wild-Type Cyclophilin Prolyl Isomerase Inhibition IC50 Values, Cyp40, wild-type Cyp40) it was 0.06 µM; at PPIL1 it was 0.1 µM. For the same molecule, the IC50 on CypE is 0.15 µM; at CypA, 0.4 µM; at CypC (setting [4]) it was 0.38 µM; on CypG it was 1.8 µM; on CypH (prolyl-isomerase inhibition, 5 nM cyclophilin, read-out: IC50 CypH) it was roughly 80 µM; on CypH (setting [5]), 80 µM. Besides, the “preference for CypD over CypC and Cyp40” value at CypD is on record as 2- to 20 fold.
As for `CC12CCCN(C1)C(=O)C=CC(=O)NCCC(C(=O)NCCOCCN)NC(=O)Cc1ccccc1CNC(=O)C(Cc1ccco1)NC2=O` (stereo not shown) [Compound A25], the IC50 at PPWD1 (setting [1]) was 40 µM; at NKTR (setting [2]), 8 µM; against CypD (setting [7]), 3.6 µM; at CypB, 0.9 µM; against Cyp40 (setting [6]), 2.6 µM; on PPIL1 it was 11 µM. The IC50 at CypE was 14 µM; at CypA, 16 µM; on CypC (setting [4]) it was 6.5 µM; on CypG, 1.9 µM; on CypH (setting [5]) it was 24 µM.
On to `NCCOCCNC(=O)[C@@H]1CCNC(=O)/C=C/C(=O)N2CCC[C@](Cc3ccccc3)(C2)C(=O)N[C@@H](Cc2ccc(-c3ccc(C(=O)O)cc3)cc2)C(=O)NCc2ccccc2CC(=O)N1` [Compound B20], for which the IC50 is greater than 100 µM at PPWD1 (setting [1]); greater than 100 µM on NKTR (setting [2]); 0.3 µM at CypD (setting [3]); 2 µM on CypB; 2.6 µM at Cyp40; 1.4 µM at PPIL1. The IC50 at CypE is 1.6 µM; on CypA it was 3.1 µM; on CypC (prolyl-isomerase inhibition, 5 nM cyclophilin, read-out: IC50 CypC), roughly 60 µM; on CypC (setting [4]), 60 µM; on CypG, greater than 100 µM; on CypH (setting [5]) it was greater than 100 µM. The “preference for CypD over CypC and Cyp40” value on CypD was “at least ninefold”.
